Test results from a melting point compilation (Tetko et al.; mined from patent text by program, amines drawn as free bases though some values may be those of a salt).

| SMILES | melting point |
| --- | --- |
| CCNC(=O)c1cc(C(F)(F)F)ccc1[Si](C)(C)C | 101 to 102 °C |
| Cc1ccc(-c2nn(-c3ccccc3)c(N)c2C(N)=O)cc1 | 186 to 187 °C |
| COc1ccccc1-c1nc(=O)c2ccccc2s1 | 144 °C |
| CCN(CC)c1nc(O)cc(OC)n1 | 165 to 166 °C |
| COC(=O)C1(F)C(=O)N(C)C(=O)NC1O (stereo not given) | 160 to 161 °C |
| CC#CCOc1ccc(S(=O)(=O)C(C(=O)NO)c2ccc(Cl)cc2)cc1 (stereo not given) | 140 °C |
| Fc1c(F)c(F)c(CSc2nc3ccccc3[nH]2)c(F)c1F | 189 to 196 °C |
| O=C1CC(c2ccc(O)cc2O)Oc2cc(O)cc(O)c21 (stereo not given) | 258 to 259 °C |
| CCc1nn(-c2ccc(F)cc2)c2cc(C(=O)Nc3c(Cl)cncc3Cl)ccc12 | 197 to 199 °C |
| CC(C)NC(=O)c1c(NC(=O)c2cc(C(F)(F)F)nn2-c2ncccc2Cl)c(Br)cc2cn[nH]c12 | 189 to 190 °C |
| c1ccc2c(c1)c1ccccc1n2-c1ccc2c(c1)Sc1ccc(-n3c4ccccc4c4ccccc43)cc1S2 | 350 °C |
| O=c1[nH]c2ccc([C@H]3CC[C@H](NCCS(=O)(=O)c4ccccc4)CC3)cc2o1 | 202 to 208 °C |
| O=C1c2cccc(SCc3ccccc3)c2C(=O)c2cccc(SCc3ccccc3)c21 | 281 to 282 °C |
| Cc1cccc(-c2c3c(cc4ccc5c(c24)OCO5)C(=O)NC3=O)c1 | 261 to 264 °C |
| COc1ccc(S(N)(=O)=O)c(-c2cccc3c2Nc2ccc(F)cc2S3)c1 | 166 to 168 °C |
| O=[N+]([O-])c1ccccc1Oc1ccccc1Cl | 48 to 49 °C |
| CC(C)(C)NC(=O)[C@@H]1[C@@H](OC(=O)c2ccccc2)CCN1C(=O)OC(C)(C)C | 132 to 134 °C |
| COc1ccc(-c2nc(NS(=O)(=O)c3ccc(C(C)(C)C)cc3)c(Oc3ccccc3OC)c(OC[C@@H](O)CO)n2)cc1 | 141 to 142 °C |
| Cc1ccc(C=NNC(=O)c2ccc(O)cc2)cc1 | 253 °C |
| O=C(Nc1ccc(-n2nc(C(F)(F)F)cc2OC(F)F)cc1)c1ccncc1 | 154 to 155 °C |
| O=C(O)COc1cccc2c1CCC(Cn1cc(C(c3ccccc3)c3ccccc3)ccc1=O)C2 (stereo not given) | 162 to 163 °C |
| CCOC(=O)N1CCN(C2Cc3cc(Cl)ccc3Sc3ccccc32)CC1 (stereo not given) | 92 to 93 °C |
| O=C1c2c(Cl)cccc2-n2cnc(-c3noc(CN(Cc4ccccc4)Cc4ccccc4)n3)c2[C@@H]2CCCN12 | 107 to 109 °C |
| COc1cc(NCc2ccccc2C)ccc1C(=O)N1CCCC(CC(=O)N2CCN(C)CC2)c2cc(Cl)ccc21 (stereo not given) | 153 to 154 °C |

| SMILES | melting point |
| --- | --- |
| CC(=O)c1ccc(Oc2ccc(F)cc2F)c(NS(C)(=O)=O)c1 | 142 to 143 °C |
| Cc1cc(O)c(S(=O)CC(C)C)c(=O)o1 (stereo not given) | 102 to 103 °C |
| O=C(Nc1nc(C(Cl)(Cl)Cl)ns1)C(Cl)(Cl)Cl | 158 °C |
| Cc1cc2cc(CN3CCCC3)cnc2cc1NC(=O)c1ccc(-c2ccc(F)cc2)cc1 | 182 to 187 °C |
| O=S(=O)(c1ccc(Cl)cc1)N1c2ccccc2CCC1c1ccc(CN2CCSCC2)cc1 (stereo not given) | 134 to 136 °C |
| CCCCOCCOc1ccc(-c2ccc3c(c2)C=C(C(=O)Nc2ccc(S(=O)CCc4nncn4CCC)cc2)CCN3CCC)cc1 (stereo not given) | 93 to 101 °C |
| CC(C)(C)c1cc(-n2nc3ccc(S(=O)(=O)c4ccccc4)cc3n2)c(O)c(C(C)(C)C)c1 | 170 to 172 °C |
| COc1ccc(/C=N/Nc2ccccc2)cc1OC1CCCC1 | 138 to 140 °C |
| COc1ccc(C(C)(C)C)cc1S(=O)(=O)Cl | 75 to 77 °C |
| O=C(O)C(Cc1ccccc1)NCC1c2c(c3ccccc3c3ccccc23)-c2c1c1ccccc1c1ccccc21 (stereo not given) | 178 to 180 °C |
| COC(=O)c1ccc(C(=O)C2CCC3=C(N=C(C(C)C)C(C(C)C)N3)C2=O)cc1 (stereo not given) | 82 to 84 °C |
| Clc1ccc(Cc2c(Cl)nc3ncnn3c2Cl)cc1 | 165 to 167 °C |
| COc1cc(N)c(Cl)cc1-c1nn(C2CC3CCC(C2)N3C)c(=O)o1 (stereo not given) | 208 °C |
| CC(C)(C)OC(=O)N1CCN(c2cccc3cc(N)cnc23)CC1 | 168 to 173 °C |
| COC(=O)c1cc(Cl)c(N=C2NCCN2C(C)=O)c(Cl)c1 | 188 to 189 °C |
| CCc1cc(C2(c3ccc(F)c(-c4cncc(F)c4)c3)N=C(N)N(C)C2=O)cc(CC)n1 (stereo not given) | 155 to 157 °C |
| ClCCn1c(-c2ccccc2)nc2cc(CN3CCN(C(c4ccccc4)c4ccccc4)CC3)ccc21 | 174 to 180 °C |
| COCCOc1cccc(-c2cncc(C#N)c2Nc2ccc3[nH]ccc3c2C)c1 | 158 to 160 °C |
| Cc1coc2c1C(=O)CC(c1ccccc1)C2 (stereo not given) | 104 to 106 °C |
| CS(=O)(=O)CC1COCc2nc3c(N)nc4ccccc4c3n21 (stereo not given) | 158 to 161 °C |
| CC(=O)SC1CN(C(C(=O)C2CC2)c2ccccc2F)C1 (stereo not given) | 49 to 52 °C |
| O=c1[nH]c2cc(Cl)ccc2c(O)c1-c1cccc(Oc2ccccc2)c1 | 303 to 306 °C |
| O=P(O)(O)Cc1ccc(CP(=O)(O)O)cc1 | > 300 °C |
| COC(=O)c1c(OC)c(OC)c2oc(C)cc(=O)c2c1OC | 125 °C |

| SMILES | melting point |
| --- | --- |
| Cc1c(C)c2c(c(C)c1O)SCO2 | 131 to 132 °C |
| COCCc1cnc(Cl)nc1 | 25 to 26 °C |
| CN(C)S(=O)(=O)N(C)c1ccc(C(=O)Nc2ccc(Cl)cc2)cc1 | 155 to 156 °C |
| Clc1ccc2c(C3CCN(CC4Cc5ccccc5C4)CC3)c[nH]c2c1Cl | 141 to 142 °C |
| O=c1c(CCCc2ccncc2)cc2cccnc2n1-c1cccc2nsnc12 | 191 to 192 °C |
| COc1ccc(-c2nc(SCCO)sc2-c2ccc(OC)cc2)cc1 | 83 to 84 °C |
| O=C1c2ccccc2COc2ccc(CC=NO)cc21 | 132 to 134 °C |
| O=C(O)c1ccc(Cl)c(Sc2ccccc2[N+](=O)[O-])c1 | 261 to 262 °C |
| CSC(=S)N1CCN(Cc2cc(OC(C)=O)ccc2O)CC1 | 124 °C |
| CC(=O)N[C@@H]1CC[C@@H](O)c2ccccc21 (relative stereo) | 120 to 127 °C |
| CCC12OC[C@@H](O1)[C@@H](O)C[C@H]2OC | 43 to 44 °C |
| O=C(Nc1ccc2cc(CN3CCCC3)ccc2c1)N1CCC(c2ccc(Cl)cc2)CC1 | 209 to 211 °C |
| Cc1c(C)c2c(c(C)c1NC(=O)CC(C)(C)C)C(=O)C(C)(C)O2 | 155 to 156 °C |
| CS[C@@H]1CC(=O)N(Cc2ccc(Oc3ccc(F)cc3)nc2)C1 | 94 to 95 °C |
| FC(F)(F)C(Cl)=NC(c1ccccc1)(c1ccccc1)c1ccccc1 | 144 to 145 °C |
| CC(=O)OC12Oc3cc(C(C)C)ccc3C1(OC(C)=O)C(=O)c1c(NS(C)(=O)=O)cccc12 (stereo not given) | 96 to 100 °C |
| C=CCC1C(=O)N(Cc2ccccc2)c2ccccc2N(C(=O)CN2C(=O)c3ccccc3C2=O)C1C (stereo not given) | 218 to 219 °C |
| CCSc1ccnc(Cl)c1C#N | 97 to 98 °C |
| COC(=O)c1cccc(-c2nc(CCl)c(C)o2)c1 | 119 to 120 °C |
| CC(=O)Oc1ccc(-c2nc3n(c2-c2ccc(OC(C)=O)cc2)CCS3)cc1 | 172 to 173 °C |
| COc1cc(OC)nc(-c2c(C)[nH]c3ccc(Cl)cc23)n1 | 179 to 181 °C |
| CC(CNS(=O)(=O)c1ccc(-c2ccccn2)s1)N1CCC(Oc2ccc(F)c(F)c2)CC1 (stereo not given) | 153 to 154 °C |

More lines, now with the values ahead:

| melting point | SMILES |
| --- | --- |
| 123 to 124 °C | CCOC(=O)C1(C(=O)OCC)CCC2(CC1)c1ccc(O)cc1CCN2C(=O)OCc1ccccc1 |
| 139 to 144 °C | NCCCC=CCCC(=O)O |
| 118 °C | CC(C)(C)OC(=O)NCC(=O)NCCCN1CCN(CCCNc2cccc3c2C(=O)c2ccccc2C3=O)CC1 |
| 105 to 108 °C | CCCc1c(OCCCOc2c(C(C)=O)ccc(OCCCCCC(=O)O)c2CCC)ccc(C(C)=O)c1O |
| 138 to 139 °C | CCCC(=O)c1ccc(OCCC(=O)O)c(Cl)c1Cl |
| 144 to 145 °C | O=C(O)C(=O)c1ccc(OCCOc2ccc3c(c2)CCCC3)cc1 |
| 74 to 76 °C | CCOC(=O)c1cc(=O)c(Oc2ccccc2OC)co1 |
| 151 to 154 °C | O=C(O)C1C=CCN2C(=O)C(CCS)(Cc3ccccc3)C(=O)N12 (stereo not given) |
| 178 to 180 °C | COC(=O)C1=C(CO)NC(C)=C(C(=O)OCC(C)(C)C)C1c1ccccc1C#N (stereo not given) |
| 157 to 160 °C | O=C(NCC1CCCCC1)c1c(Cl)ccc2nc(N3CCC[C@@H]3C(=O)O)ccc12 |
| 258 to 260 °C | Nc1nc2c(ncn2OCC(O)CP(=O)(O)O)c(=O)[nH]1 (stereo not given) |
| 117 to 118 °C | COc1ccc(C(=O)O)c(OCc2cccc(OCc3ccc4ccccc4n3)c2)c1 |
| 100 to 101 °C | O=C(CO)c1cccc(Br)c1 |
| 168 to 170 °C | COC(=O)C1=C(C)N(CCCN2CCCCC2)c2cc[nH]c(=O)c2C1c1ccccc1C(F)(F)F (stereo not given) |
| 112 to 113 °C | CCOCCCOc1ccc(-c2ccc3c(c2)C=C(C(=O)OC)CCN3C=O)cc1 |
| 220 °C | CC(C)CCNCCCS(=O)(=O)O |
| 70 to 72 °C | O=C(CCCO)NCc1ccccc1 |
| 170 to 172 °C | COCC(C)(Oc1ccc(CC(=O)Nc2cc(C)cc(C)c2)cc1)C(=O)O (stereo not given) |
| 56 to 64 °C | CCCN(CCC)C1CCc2ccc3c(c2C1)OCC3=O (stereo not given) |
| 172 to 174 °C | CCc1cc2[nH]c(=O)cc(Cl)c2c(CC)n1 |
| 208 to 210 °C | O=C(O)Cc1ccc(-c2ccc(O)cc2)c(F)c1 |
| 115 to 116 °C | CC(C(=O)C=Cc1ccc(Cl)cc1)n1cncn1 (stereo not given) |
| 188 to 190 °C | CC(CCCC(C(=O)O)C(=O)O)C1CC=C2C3=C(CCC21C)C1(C)CCC(O)C(C)(C)C1CC3 (stereo not given) |
| 223 to 224 °C | CCCCc1ncc(C/C=C/C(N)(Cc2cccs2)C(=O)O)n1Cc1ccc(C(=O)O)cc1 (stereo not given) |
| 155 to 157 °C | NC(=O)N(O)CC#Cc1cccc(C2=N[C@H](c3ccccc3)CS2)c1 |
| 143 to 144 °C | CS(=O)(=O)Cc1cc(C(=O)CBr)ccc1OCc1ccccc1 |
| 154 to 158 °C | C=CCNc1ccc(N(CC(O)CO)CC(O)CO)cc1[N+](=O)[O-] (stereo not given) |
| 91 to 92 °C | NC(=O)N(O)CCOCc1cccs1 |
| 104 to 106 °C | C=CC#CCn1c(-c2ccccc2)nc(C(F)(F)F)c(CC)c1=O |
| 114 to 115 °C | CCOC(=O)c1ccc(CSc2nnc(S)s2)cc1 |
